Data published in US8481546B2, “CGRP receptor antagonist” (Bristol-Myers Squibb Company, priority 2010, dated 2013).
Converted amounts (≈) assume the structure as drawn. Where two headings read alike, the source gives them in different places.

Key:
[1] = Aqueous solubility, pH dependence; assay type: physicochemical
Protocol: Solid free base was mixed with carbonate, and ethanolamine buffers. The pH of a third sample was adjusted with HCl. The solids were mixed with the vehicles using a mixer that was enclosed within an incubator set to 25 C. After equilibration, samples of the supernatant were withdrawn, diluted as appropriate, and analyzed by HPLC.
Crystalline Compound I converted to a gelatinous phase during measurement of the pH solubility profile. The absence of a crystalline phase in equilibrium with water prevents a confident assessment of the pH range in which Compound I can be formulated as a thermodynamically stable solution. Efforts to generate a crystalline free base form of Compound I that can be equilibrated in water are ongoing.

[2] = Pharmacokinetics in the rabbit after IV and IN administration; assay type: in vivo, New Zealand White rabbits
Protocol: The feasibility of nasal delivery was assessed in the IN rabbit model by comparing the plasma concentration-time profiles and pharmacokinetic parameters (Cmax, Tmax, AUC and bioavailability) for nasally delivered Compound I to that delivered by the IV route. The dosing solution concentration and delivery volume are included in the data tables for each study. Vehicle compositions are described in the footnotes below the table.
Groups of three male New Zealand White rabbits, ranging in weight from 3-3.5 kg, received a single dose of drug in one of the following treatments: 0.5 mg/kg IV bolus injection over 30 seconds, or 0.3-3 mg/kg IN administered with a syringe microsprayer. Prior to IN dosing, rabbits were lightly sedated to effect with the inhalant anesthetic, Sevoflurane. The rabbits regained consciousness in 2-5 min. Serial blood samples were collected in heparin-containing vacutainers at predose, 2, 5, 10, 15, 30 min and 1, 2, 4, 6, and 24 hours post-dose. Blood samples were immediately centrifuged at 4° C. and the separated plasma stored at −80° C. until further analysis by the LC/MS/MS assay.

[3] = target: T1, CGRP receptor endogenously expressed in SK-N-MC cell membranes (Homo sapiens, UniProt O60894+Q16602); test: Competition for [125I]CGRP binding (radioligand competition assay); conditions: 15 pM [125I]CGRP, read-out: mean Ki, inhibition of [125I]CGRP binding
T1 construct: endogenous in cells; host or cells: SK-N-MC human neuroblastoma cells (membrane homogenate or attached whole cells)
Protocol: SK-N-MC cell membrane homogenate serves as the receptor source. Human neuroblastoma SK-N-MC cells are used for in vitro assays because they endogenously express the CGRP receptor with an identical sequence to the cloned human CGRP receptor (Aiyar et al., 2001). Cells are grown at 37° C. in 5% CO2 in medium consisting of MEM with Earle's salts and L-glutamine supplemented with 10% fetal bovine serum to reach confluence. The cells are harvested by rinsing twice with phosphate-buffered saline and are incubated for 5-10 minutes at 4° C. in hypotonic lysis buffer consisting of 10 mM Tris (pH 7.4) and 5 mM EDTA. The cells are collected and transferred to polypropylene tubes and homogenized using a polytron. Homogenates are centrifuged at 32,000×g for 30 min. The pellets are resuspended in cold hypotonic lysis buffer with 0.1% mammalian protease inhibitor cocktail and assayed for protein concentration. The membrane homogenate is then aliquoted and stored at −80° C. until the day of assay.
The ability of Compound I to compete for the radiolabeled ([^125I]CGRP, Amersham Biosciences) endogenous peptide human alpha CGRP (hαCGRP) is measured using a radioligand competition assay. Compound I is first solubilized in and carried through serial dilutions using 100% DMSO. […] Protein bound radioactivity is measured using a gamma scintillation counter. […]

[4] = tested on: olfactory epithelium (nasal tissues); test: One-week comparative intranasal irritation study in rats (Compound I vs Compound III): nasal histology and tolerability; assay type: in vivo; conditions: for Olfactory Epithelial Atrophy, incidence of severity Marked (number of rats) / Olfactory Epithelial Atrophy, incidence of severity Mild (number of rats) / Olfactory Epithelial Atrophy, incidence of severity Minimal (number of rats) / Olfactory Epithelial Atrophy, incidence of severity Moderate (number of rats) / Olfactory Epithelial Atrophy, incidence of severity None (number of rats): 1 week
Protocol: This study was conducted to compare potential nasal irritation of Compound I to Compound III when given intranasally to male rats for 1 week. Male rats (10/group) were instilled intranasally with Compound I or Compound III solutions ([…] in 225 mM succinic acid, 0.02% benzalkonium chloride, 1.25% anhydrous dextrose, pH 5.8-6.2) once daily at a dose volume of 100 μL/nostril. Using this dosing paradigm, fixed doses of 5, 15 or 35 mg of test article were delivered daily. As a consequence, dosages normalized to body weight decreased with time as the rats grew. One control group was given succinate vehicle and a sham control group was given saline by intranasal instillation. Parameters evaluated included clinical observations, body weight, food consumption, toxicokinetics, and histological evaluation of nasal tissues.

[5] = male, New Zealand White, plasma, IV 0.5 mg/kg
[6] = nasal instillation 5 mg (0.357 mg/cm^2) once daily
[7] = nasal instillation 15 mg (1.07 mg/cm^2) once daily
[8] = nasal instillation 35 mg (2.50 mg/cm^2) once daily

Cc1cc(C[C@@H](NC(=O)N2CCC(c3cc4ccccc4[nH]c3=O)CC2)C(=O)N2CCN(C3CCN(C)CC3)CC2)cc2cn[nH]c12 [Compound I, (R)—N-(3-(7-methyl-1H-indazol-5-yl)-1-(4-(1-methylpiperidin-4-yl)piperazin-1-yl)-1-oxopropan-2-yl)-4-(2-oxo-1,2-dihydroquinolin-3-yl)piperidine-1-carboxamide]
solubility ([1]; Partial titration of Compound I with HCl, pH = 8.5, 25 C): 105000 µg/mL (≈ 164000 µM)
solubility ([1]; aqueous buffer, thermodynamic from solid, Carbonate buffer, pH = 10.4, 25 C, read-out: Solubility): 200 µg/mL (≈ 313 µM)
solubility ([1]; aqueous buffer, thermodynamic from solid, Ethanolamine buffer, pH = 9.4, 25 C, read-out: Solubility): 500 µg/mL (≈ 783 µM)
solubility ([1]; aqueous media, aqueous buffer, thermodynamic from solid, pH < 8.5, 25 C, read-out: Solubility): > 300000 µg/mL
time drug was detected in plasma post-dose ([2]; IN): at least 6 h
time drug was detected in plasma post-dose ([2]; IN, high dose): up to 24 hr
Plasma levels ([2]; IN, measured within 5 min): > 10 nM
MRT [2, 5]: 22.8 ± 9 min
clearance [2, 5]: 7.9 ± 3 mL/min/kg
half-life [2, 5]: 78 ± 15.6 min
AUC ([2]; male, New Zealand White, plasma, IV 0.5 mg/kg, n = 3, Mean ± SD): 1.8 ± 0.58 µM·h
Vd ([2]; male, New Zealand White, plasma, IV 0.5 mg/kg, read-out: Vss): 0.16 ± 0.01 L/kg
Cmax ([2]; male, New Zealand White, plasma, inhaled or intranasal, 0.3 mg/kg, IN low dose 0.3 mg/kg (10 mg/ml), n = 3, Mean ± SD): 120 nM
bioavailability ([2]; male, New Zealand White, plasma, inhaled or intranasal, 0.3 mg/kg, IN low dose 0.3 mg/kg, read-out: Bioavailability (F %)): 12.5 ± 6.56%
Cmax ([2]; male, New Zealand White, plasma, inhaled or intranasal, 1 mg/kg, IN mid-dose 1.0 mg/kg (30 mg/ml), n = 3, Mean ± SD): 550 ± 260 nM
bioavailability ([2]; male, New Zealand White, plasma, inhaled or intranasal, 1 mg/kg, IN mid-dose 1.0 mg/kg, read-out: Bioavailability (F %)): 18.8 ± 8.96%
Cmax ([2]; male, New Zealand White, plasma, inhaled or intranasal, 3 mg/kg, IN high dose 3.0 mg/kg (100 mg/ml), n = 3, Mean ± SD): 2030 ± 1000 nM
bioavailability ([2]; male, New Zealand White, plasma, inhaled or intranasal, 3 mg/kg, IN high dose 3.0 mg/kg, read-out: Bioavailability (F %)): 30.2 ± 10.8%
Cmax ([2]; male, New Zealand White, plasma, inhaled or intranasal, 3 mg/kg, IN, range over 0.3, 1, and 3 mg/kg): 120 to 2000 nM
bioavailability ([2]; male, New Zealand White, plasma, inhaled or intranasal, 3 mg/kg, IN, range over 0.3, 1, and 3 mg/kg, read-out: absolute bioavailability): 13 to 30%
AUC ([2]; male, New Zealand White, plasma, inhaled or intranasal, IN high dose 3.0 mg/kg (100 mg/ml), n = 3, Mean ± SD): 3.27 ± 1.17 µM·h
Tmax ([2]; male, New Zealand White, plasma, inhaled or intranasal, IN high dose 3.0 mg/kg, read-out: Tmax): 19.8 min
AUC ([2]; male, New Zealand White, plasma, inhaled or intranasal, IN low dose 0.3 mg/kg (10 mg/ml), n = 3, Mean ± SD): 0.14 ± 0.07 µM·h
Tmax ([2]; male, New Zealand White, plasma, inhaled or intranasal, IN low dose 0.3 mg/kg, read-out: Tmax): 15 min
AUC ([2]; male, New Zealand White, plasma, inhaled or intranasal, IN mid-dose 1.0 mg/kg (30 mg/ml), n = 3, Mean ± SD): 0.69 ± 0.33 µM·h
Tmax ([2]; male, New Zealand White, plasma, inhaled or intranasal, IN mid-dose 1.0 mg/kg, read-out: Tmax): 15 min
Tmax ([2]; male, New Zealand White, plasma, inhaled or intranasal, IN, all doses studied, read-out: time to reach peak concentrations (Tmax)): 12 to 18 min
Cmax ([2]; male, New Zealand White, plasma, iv, 0.5 mg/kg, IV 0.5 mg/kg, n = 3, Mean ± SD): 13700 ± 1800 nM
Ki [3]: 0.0227 nM
tolerability of intranasal administration ([4]; male rats, 5, 15 or 35 mg once daily for 1 week): well tolerated
Olfactory Epithelial Atrophy, incidence of severity Marked (number of rats) [4, 6]: 0
Olfactory Epithelial Atrophy, incidence of severity Mild (number of rats) [4, 6]: 0
Olfactory Epithelial Atrophy, incidence of severity Minimal (number of rats) [4, 6]: 1
Olfactory Epithelial Atrophy, incidence of severity Moderate (number of rats) [4, 6]: 0
Olfactory Epithelial Atrophy, incidence of severity None (number of rats) [4, 6]: 8
Olfactory Epithelial Atrophy, incidence of severity Marked (number of rats) [4, 7]: 0
Olfactory Epithelial Atrophy, incidence of severity Mild (number of rats) [4, 7]: 2
Olfactory Epithelial Atrophy, incidence of severity Minimal (number of rats) [4, 7]: 6
Olfactory Epithelial Atrophy, incidence of severity Moderate (number of rats) [4, 7]: 0
Olfactory Epithelial Atrophy, incidence of severity None (number of rats) [4, 7]: 1
Olfactory Epithelial Atrophy, incidence of severity Marked (number of rats) [4, 8]: 0
Olfactory Epithelial Atrophy, incidence of severity Mild (number of rats) [4, 8]: 2
Olfactory Epithelial Atrophy, incidence of severity Minimal (number of rats) [4, 8]: 3
Olfactory Epithelial Atrophy, incidence of severity Moderate (number of rats) [4, 8]: 0
Olfactory Epithelial Atrophy, incidence of severity None (number of rats) [4, 8]: 4
